Source: US20060035844A1, “Preventive or remedy for diseases caused by hyperglycemia” (priority 2002, published 2006)

Columns and labels:
rat SGLT1 = biological target: T1, rat SGLT1 (Rattus norvegicus, UniProt P53790); test: Assay for inhibitory effects on rat SGLT1 activity (uptake of methyl-α-D-glucopyranoside in CrS1 cells); type: cell-based; details: CHO-K1 cells stably expressing rat SGLT1 (CrS1), 1 mM α-MG, 37° C., 1 hour; read-out: IC50 value, inhibition of uptake of methyl-α-D-glucopyranoside
T1 construct: expressed in transfected cells
T1 sequence (P53790 1-665): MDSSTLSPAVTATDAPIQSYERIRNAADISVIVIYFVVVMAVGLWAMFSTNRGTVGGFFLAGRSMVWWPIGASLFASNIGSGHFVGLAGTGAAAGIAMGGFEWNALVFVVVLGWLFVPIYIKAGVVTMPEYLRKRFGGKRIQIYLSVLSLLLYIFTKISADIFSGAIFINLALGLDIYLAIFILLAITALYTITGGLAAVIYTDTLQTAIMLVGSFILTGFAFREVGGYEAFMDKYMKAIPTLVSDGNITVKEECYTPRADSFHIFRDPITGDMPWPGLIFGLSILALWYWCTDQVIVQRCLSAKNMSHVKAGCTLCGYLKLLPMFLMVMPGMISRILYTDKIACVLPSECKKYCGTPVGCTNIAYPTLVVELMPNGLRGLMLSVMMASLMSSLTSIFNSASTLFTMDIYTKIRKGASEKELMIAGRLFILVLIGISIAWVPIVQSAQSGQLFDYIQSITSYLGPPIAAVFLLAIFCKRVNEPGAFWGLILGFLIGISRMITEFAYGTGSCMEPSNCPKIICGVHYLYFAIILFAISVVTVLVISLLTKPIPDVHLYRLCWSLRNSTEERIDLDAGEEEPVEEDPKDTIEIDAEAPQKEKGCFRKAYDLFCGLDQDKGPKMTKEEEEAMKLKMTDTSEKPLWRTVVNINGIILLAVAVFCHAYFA
Method: A test compound was dissolved in dimethyl sulfoxide, and then appropriately diluted with distilled water. The test compound solution was added to the uptake buffer containing 1 mM α-MG, and designated as a measurement buffer. For the control group, the measurement buffer without any test compound was prepared. […] After repeating the same treatment, the pre-treatment buffer was removed. To each well was added 75 μL of the measurement buffer or the basal uptake buffer was added and incubated at 37° C. for 1 hour. After removing the measurement buffer, cells were washed twice with 180 μL per well of the washing buffer (the basal uptake buffer containing 10 mM non-labeled α-MG). The cells were solubilized by 75 μL per well of 0.2 mol/L sodium hydroxide. The cell lysates were transferred into PicoPlates (Packard), and then added 150 μL of MicroScint-40 (Packard) and mixed. Radioactivity was measured by means of micro-scintillation counter TopCount (Packard).

male Zucker fa/fa rats = test: Effects after mixed-carbohydrate loading with or without sucrose (plasma glucose AUC 0-3 h); type: in vivo, rat; details: Zucker fatty fa/fa rats, oral; Example 1 0.5 mg/kg, Example 2 0.3 mg/kg, acarbose 5 mg/kg, miglitol 5 mg/kg, phlorizin 100 mg/kg; 1.6 g glucose/kg load
Text: Next, in order to investigate whether effects caused by fructose ingestion are present, the present inventors have performed the following test using Zucker fatty fa/fa rats, model animals of type-2 diabetes. […] In the fructose-containing diet group, mixed carbohydrate (starch: sucrose: lactose=6:3:1), which corresponds approximately to carbohydrates in regular diets, was loaded. (e.g., see the following Reference 35). On the other hand, in the fructose-free diet group, mixed carbohydrate substituted the corresponding amount of starch for the amount of glucose contained within sucrose, was loaded, because sucrose is a disaccharide and is digested to glucose and fructose in the gastrointestinal tract. Then, comparison study of each diet was performed.
The FIG. 1 is a graph showing hypoglycemic effects of each drug caused by fructose ingestion.
Effects of SGLT1 Inhibitors, an SGLT Inhibitor and α-glucosidase Inhibitors After Mixed-Carbohydrate Containing Sucrose Loading
Immediately after the compound administration, mixed-carbohydrate with sucrose (starch:sucrose:lactose=6:3:1) or without sucrose (starch:lactose=7.5:1) was loaded at a dose of 1.6 g glucose/kg. The blood was collected immediately before and after the administration with the time course (0, 0.5, 1, 2, 3 hours). The plasma was collected to quantify the plasma glucose concentration. The area under the curve of plasma glucose concentration from 0 to 3 hours was calculated by the trapezoidal method. Statistical analysis was T test between existence and nonexistence of sucrose in mixed-carbohydrate solution on each compound.

male Wistar rats = test: Effects of an SGLT1 inhibitor on absorption of fructose (fructose tolerance test, residual fructose in the gastrointestinal tract); type: in vivo, rat
Method: Effects of an SGLT1 Inhibitor on Absorption of Fructose
Immediately after the administration, 0.2 g/kg of fructose was loaded. After 30 minutes, rats were sacrificed with exsanguination under ether anesthesia and then the contents of stomach and small intestine were collected with 10 mL ice-cold saline. Fructose concentration was measured by fructose assay kit (D-glucose/D-Fructose; Roche diagnostics) and calculated residual fructose (% of dose) in the gastrointestinal tract. Statistical analysis between control and treated groups are calculated using T test.

IC50 (rat SGLT1) [nM]	Structure (SMILES)	Reduction of plasma glucose concentration after sucrose-containing diet compared with sucrose-free diet (in words) (male Zucker fa/fa rats)	Residual fructose (% of dose) in the gastrointestinal tract (male Wistar rats; 0.3 mg/kg oral, 0.2 g/kg fructose load, after 30 minutes, stomach and small intestine contents, control 11.8 ± 2.1) [%]	Inhibitory effect on absorbing fructose (in words) (male Wistar rats; fructose tolerance test, residual fructose in the gastrointestinal tract)
139	Cc1cc(O)cc(O[C@@H]2O[C@H](CO)[C@@H](O)[C@H](O)[C@H]2O)c1Cc1ccc(NC(=O)NCc2cccnc2)cc1 [Example 1, 5-Hydroxy-3-methyl-2-{4-[3-(3-pyridylmethyl)ureido]benzyl}-phenyl β-D-glucopyranoside]	significantly reduced plasma glucose concentration	–	–
38.1	Cc1cc(OCCNC(=N)N)ccc1Cc1c(O[C@@H]2O[C@H](CO)[C@@H](O)[C@H](O)[C@H]2O)n[nH]c1C(C)C [Example 2, 3-(β-D-Glucopyranosyloxy)-4-{[4-(2-guanidinoethoxy)-2-methylphenyl]methyl}-5-isopropyl-1H-pyrazole]	significantly reduced plasma glucose concentration	12.2 ± 2.6	substantially show no inhibitory effect on absorbing fructose
–	O=C(CCc1ccc(O)cc1)c1c(O)cc(O)cc1O[C@@H]1O[C@H](CO)[C@@H](O)[C@H](O)[C@H]1O [Phlorizin, reference compound]	did not reduce plasma glucose concentration	–	–
–	OCCN1C[C@H](O)[C@@H](O)[C@H](O)[C@H]1CO [miglitol, reference compound]	did not reduce plasma glucose concentration	–	–
